Values of other authors in PMC10254170, “Diastereoselective Synthesis of the Borylated D-Galactose Monosaccharide 3-Boronic-3-Deoxy-D-Galactose and Biological Evaluation in Glycosidase Inhibition and in Cancer for Boron Neutron Capture Therapy (BNCT)” (Molecules, 2023).

System: human
Conditions: 5 min; cited from earlier work

For c1ccccc1 [benzene], the LCLO is listed as 20,000 ppm.
